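Where inhibition never reached the appropriate level, the endpoint shown equals the highest concentration tested. Otherwise, values were interpolated linearly from a five-concentration, 48-hour dose response in 96-well plates. GI50: concentration for 50% inhibition of growth. Definition used: TGI = concentration required for complete inhibition of growth.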
Assays:
Experiment in all cases: DTP human tumour cell line panel, 48 h
SK-MEL-5 melanoma = test system: SK-MEL-5 melanoma
RPMI-8226 leukemia = test system: RPMI-8226 leukemia
SN12C renal = test system: SN12C renal
PC-3 prostate = test system: PC-3 prostate
NCI-H522 lung = test system: NCI-H522 lung
OVCAR-5 ovarian = test system: OVCAR-5 ovarian
SR leukemia = test system: SR leukemia
HL-60(TB) leukemia = test system: HL-60(TB) leukemia
A498 renal = test system: A498 renal
U251 CNS = test system: U251 CNS

| Compound | TGI (SK-MEL-5 melanoma) | TGI (RPMI-8226 leukemia) | TGI (SN12C renal) | TGI (PC-3 prostate) | TGI (NCI-H522 lung) | TGI (OVCAR-5 ovarian) | TGI (SR leukemia) | TGI (HL-60(TB) leukemia) | TGI (A498 renal) | TGI (U251 CNS) | GI50 (SK-MEL-5 melanoma) | GI50 (RPMI-8226 leukemia) | GI50 (A498 renal) | GI50 (SN12C renal) | GI50 (NCI-H522 lung) | GI50 (OVCAR-5 ovarian) | GI50 (HL-60(TB) leukemia) | GI50 (U251 CNS) |
| --- | --- | --- | --- | --- | --- | --- | --- | --- | --- | --- | --- | --- | --- | --- | --- | --- | --- | --- |
| Nc1ncc(Cc2nn3c(COc4ccc(Cl)cc4)nnc3s2)s1 | > 100 µM | > 100 µM | > 100 µM | > 100 µM | > 100 µM | > 100 µM | > 100 µM | > 100 µM |  |  |  |  |  |  |  |  |  |  |
| COC(=O)C1CC(C=O)=C(SC)N1 (stereo unspecified) | > 50 µM | > 50 µM |  | > 50 µM | > 50 µM | > 50 µM |  |  | > 50 µM | > 50 µM |  |  |  |  |  |  |  |  |
| C=C1C(=O)OC2C1CC1OC2C(C)CCC/C(C)=C\CCC1(C)O (stereo unspecified) | 12.4 µM | 24.3 µM | 62.5 µM |  | 26.2 µM | 124 µM |  | 21.2 µM | 60.3 µM | > 91.1 µM |  |  |  |  |  |  |  |  |
| CCCCN=C(OC1C=CCCC1)SC (stereo unspecified) | > 100 µM | > 100 µM | > 100 µM | > 100 µM |  | > 100 µM | > 100 µM | > 100 µM | > 100 µM | > 100 µM |  |  |  |  |  |  |  |  |
| Cn1c(=O)c2[nH]cnc2n(C)c1=O | > 100 µM | > 100 µM | > 100 µM | > 100 µM | > 100 µM | > 100 µM | > 100 µM | > 100 µM |  |  |  |  |  |  |  |  |  |  |
| CC1Oc2c(c(O)cc3oc(=O)cc(-c4ccccc4)c23)C(=O)C1C (stereo unspecified) | > 100 µM | > 100 µM | > 100 µM |  | > 100 µM |  |  | > 100 µM | > 100 µM | > 100 µM |  |  |  |  |  |  |  |  |
| Fc1ccccc1C1SCC2=Nc3ccccc3CN21 (stereo unspecified) | > 100 µM | > 100 µM | > 100 µM | > 100 µM |  | > 100 µM | > 100 µM | > 100 µM | > 100 µM | > 100 µM |  |  |  |  |  |  |  |  |
| CN(C)CCCN1C(=O)N(CCCN(C)C)c2c3cc(O)ccc3nc3c([N+](=O)[O-])ccc1c23 | 30.4 µM | 63.3 µM | 49.1 µM | 24 µM | 20.5 µM | > 100 µM |  |  | 40.3 µM | 30.2 µM |  |  |  |  |  |  |  |  |
| NC(=O)Nc1n[nH]c(-c2ccccc2)n1 | > 100 µM | > 100 µM | > 100 µM | > 100 µM | > 100 µM | > 100 µM |  | > 100 µM | > 100 µM | > 100 µM |  |  |  |  |  |  |  |  |
| CN1C(C(=O)Nc2ccccn2)=C(O)c2ccccc2S1(=O)=O | > 100 µM | > 100 µM | > 100 µM | > 100 µM | > 100 µM | > 100 µM | > 100 µM | > 100 µM |  | > 100 µM |  |  |  |  |  |  |  |  |
| C[C@@H](CC(O)C(O)C(C)(C)O)C1CCC23CC12CCC1[C@@]2(C)CCC(=O)C(C)(C)C2CC(OC2OC(CO)C(O)C(O)C2O)[C@]13C (stereo partly specified) | > 10 µM | > 10 µM | > 10 µM | > 10 µM | > 10 µM | > 10 µM |  | > 10 µM | > 10 µM | > 10 µM |  |  |  |  |  |  |  |  |
| COc1ccc(/C=C(\C#N)c2nc(-c3cc4ccccc4oc3=O)cs2)cc1 | > 100 µM | > 100 µM | > 100 µM | > 100 µM | 57.5 µM | > 100 µM | > 100 µM | > 100 µM |  | 27.3 µM |  |  |  |  |  |  |  |  |
| COc1ccc(CNc2cnc3cc(N)ccc3n2)cc1OC | > 100 µM | > 100 µM | > 100 µM |  | > 100 µM |  | > 100 µM | > 100 µM |  |  |  |  |  |  |  |  |  |  |
| O.O=[Se](=O)(O)O.[NH-]C1CCCCC1[NH-].[Pt+2] (stereo unspecified) | 15.6 µM | > 31.6 µM | > 100 µM |  | > 59.4 µM | > 100 µM |  | 33.8 µM | 97 µM | > 100 µM | 7.4 µM | 1.12 µM | 19.4 µM | 23.3 µM | 13.7 µM | 26.7 µM | 3.22 µM | 37 µM |
| NC(Cc1ccccc1)C(=O)O (stereo unspecified) | > 100 µM | > 100 µM | > 100 µM | > 100 µM | > 100 µM | > 100 µM |  | > 100 µM | > 100 µM | > 100 µM |  |  |  |  |  |  |  |  |
| CCCCC[C@@H]1OC(=O)[C@@]2(CC3c4ccccc4C2c2ccccc23)[C@H]1C(=O)OC | 39.2 µM | 54.3 µM | > 100 µM | > 100 µM |  | > 100 µM | > 100 µM | 33.1 µM | 82.5 µM | > 100 µM |  |  |  |  |  |  |  |  |
| COc1cc2c(cc1OCc1ccccc1)NC(=O)[C@@H]1C[C@@H](O)CN1C2=O | > 100 µM | > 100 µM | > 100 µM | > 100 µM | > 100 µM | > 100 µM | > 100 µM |  | > 100 µM | > 100 µM |  |  |  |  |  |  |  |  |
| COc1ccc(/C(Cl)=C(\C=O)c2ccc(Cl)cc2)cc1 | 32.6 µM |  | 13.6 µM |  | 5.89 µM | > 100 µM | 6.7 µM | 16.6 µM | 74 µM | 17.7 µM |  |  |  |  |  |  |  |  |
| CC(=O)Nc1oc(C)nc1C#N | > 100 µM | > 100 µM | > 100 µM | > 100 µM |  | > 100 µM | > 100 µM | > 100 µM | > 100 µM | > 100 µM |  |  |  |  |  |  |  |  |
| O=C(c1ccccc1)c1ccc2c(c1)N=C(c1ccc(Cl)c(Cl)c1)CC(c1ccc3ccccc3c1)N2 (stereo unspecified) | > 100 µM | > 100 µM | > 100 µM |  | > 100 µM | > 100 µM | > 100 µM | > 100 µM | > 100 µM | > 100 µM |  |  |  |  |  |  |  |  |
| C#Cc1ccccc1C(=O)OC | > 100 µM | > 100 µM | > 100 µM |  | > 100 µM | > 100 µM | > 100 µM | > 100 µM | > 100 µM | > 100 µM |  |  |  |  |  |  |  |  |
| C[N+](C)(C)c1nc(N)nc2c1ncn2C1OC(CO)C(O)C1O (stereo unspecified) | > 100 µM | > 100 µM | > 100 µM | > 100 µM | > 100 µM | > 100 µM | > 100 µM |  | > 100 µM | > 100 µM |  |  |  |  |  |  |  |  |
| COC(=O)[C@]12CCC(=O)N1[C@H](C(=O)O)Cc1c2[nH]c2ccccc12 | > 100 µM |  | > 100 µM | > 100 µM | > 100 µM | > 100 µM | > 100 µM |  | > 100 µM | > 100 µM |  |  |  |  |  |  |  |  |
